Measurements from patent publication US20070259327A1, “Cryopreservation medium and cryopreservation method for tissues and cells” (BioVerde. Inc., priority 2006, published 2007).

Assays:
Assay type in all cases: cell-based, pigs
Islets [1] = experiment: Islet recovery rate after cryopreservation with polyphenol pre-incubation; settings: for islet recovery rate following cryopreservation: 2 hours incubation before freezing, 4 weeks in liquid nitrogen; for islet recovery rate after 48 hours of postcryopreservation tissue culture: 48 hours culture after thawing
Method: (§1) Islets were isolated from over two years old pigs (n=3). After overnight culture, a known number of islets were incubated for 2 hours in culture medium supplemented with polyphenol (epigallocatechin-gallate (EGCg) with more than 98% purity) at concentrations of 0 (control), 30, 60, 120 ug/ml. Islets were suspended in the same volume of cryopreservation solution containing 12% hydroxyethyl starch (HES) and 10% dimethyl sulfoxide (DMSO) with 8% […] (FBS), and then cryopreserved using a program freezing system^3. After 4 weeks storage in liquid nitrogen, islets were rapidly thawed in a hot water bath. We assessed the results on recovery rate (islet yield after thawing/islet yield before freezing) following cryopreservation and after 48 hours of postcryopreservation tissue culture, viability and functionality.

Islets [2] = experiment: Viability of post-cryopreservation islets assessed using AO/PI; settings: for viability assessed using AO/PI: post-cryopreservation
Method: as §1

Islets [3] = experiment: Functionality of post-cryopreservation islets (stimulation index, insulin secretion high/low glucose); settings: ratio of insulin secretion high vs low glucose medium
Method: as §1, with “functionality. […] The stimulation index represents a ratio of insulin secretion between high-concentration glucose culture medium and low-concentration glucose culture medium.” for “functionality.”

O=C(O[C@@H]1Cc2c(O)cc(O)cc2O[C@@H]1c1cc(O)c(O)c(O)c1)c1cc(O)c(O)c(O)c1 [polyphenol, epigallocatechin-gallate]
islet recovery rate following cryopreservation (Islets [1]; 30 ug/ml polyphenol): 66.5±3.3%
islet recovery rate after 48 hours of postcryopreservation tissue culture (Islets [1]; 30 ug/ml polyphenol): 45.3±0.3%
islet recovery rate following cryopreservation (Islets [1]; 60 ug/ml polyphenol): 76.9±5.2%
islet recovery rate after 48 hours of postcryopreservation tissue culture (Islets [1]; 60 ug/ml polyphenol): 68.0±3.0%
islet recovery rate following cryopreservation (Islets [1]; 120 ug/ml polyphenol): 74.5±2.9%
islet recovery rate after 48 hours of postcryopreservation tissue culture (Islets [1]; 120 ug/ml polyphenol): 54.6±3.3%
viability assessed using AO/PI (Islets [2]; 30 ug/ml polyphenol): 83.1±1.2
viability assessed using AO/PI (Islets [2]; 60 ug/ml polyphenol): 85.9±2.5
viability assessed using AO/PI (Islets [2]; 120 ug/ml polyphenol): 84.4±1.0
viability following cryopreservation, compared with control (Islets [2]; polyphenol group vs control group, p<0.01): significantly higher than the control group
functionality indicated by stimulation index (Islets [3]; 30 ug/ml polyphenol): 1.4±0.2
functionality indicated by stimulation index (Islets [3]; 60 ug/ml polyphenol): 1.4±0.3
functionality indicated by stimulation index (Islets [3]; 120 ug/ml polyphenol): 0.9±0.3
